From patent US5763435A, “Sulfate conjugates of ursodeoxycholic acid, and their beneficial use in inflammatory disorders” (priority 1995, dated 1998)
Entries after “also recorded” stand apart in the source; their conditions may differ.

Assays:
[1] = Urinary excretion of UDCA after oral administration; format: in vivo, Sprague-Dawley rats
Procedure: Male Sprague-Dawley rats (Harlan Sprague-Dawley, Inc., Indianapolis, Ind.), weighing 210-290 g, were maintained on a 12-hour light-dark cycle and fed standard laboratory chow ad libitum for 3 days. The animals were then transferred to metabolic cages in which they were housed individually and fed the same diet. UDCA, UDCA 3-sulfate, UDCA 7-sulfate, and UDCA 3,7-disulfate were administered by gavage at a dose of 250 mg/day for 4 consecutive days. Each group comprised 3-6 rats. Body weights of the animals were measured each day. On day 5, the animals were killed by exsanguination under ether anesthesia. Plasma was collected and frozen at -20° C. The liver was removed, rinsed in normal saline, and flash-frozen in liquid nitrogen. Urine and feces were collected every 24 hours and frozen at -20° C. All animals received humane care in compliance with the "Guide for the Care and Use of Laboratory Animals" prepared by the National Academy of Sciences (National Institutes of Health publication no. 86-23, revised in 1985).
In each group, urine from all animals was pooled on the individual days of collection. Day 1 represented the baseline sample, and samples from days 2, 3 and 4 were obtained during bile acid administration. After the addition of nordeoxycholic acid (1 μg), bile acids were quantitatively extracted from portions of urine (3 mL) and plasma (1 mL) using Bond-Elut C18 cartridges. After liquid-solid extraction, isolation and separation of unconjugated and conjugated bile acids were achieved by lipophilic anion-exchange chromatography on Lipidex-DEAP. Solvolysis of bile acid conjugates and isolation of the hydrolyzed products were performed as described above, and bile acids were converted to volatile methyl ester-trimethylsilyl ether derivatives.
GC-MS analysis was performed using a Finnigan 4635 mass spectrometer (Finnigan Inc., San Jose, Calif.) that housed an identical gas chromatography column operated under the same conditions. Electron ionization (70 eV) mass spectra were recorded over the mass range of 50-800 daltons by repetitive scanning of the eluting components. Identification of bile acids was made on the basis of the gas chromatography retention index relative to a homologous series of n-alkanes, referred to as the methylene unit value, and the mass spectrum compared with authentic standards. Quantification of bile acids was achieved using gas chromatography by comparing the peak height response of the individual bile acids with the peak height response obtained from the internal standard.
Liquid secondary ionization mass spectrometry negative ion spectra of urine samples were obtained after placing approximately 1 μL of the methanolic extract onto a small drop of a glycerol/methanol matrix spotted on a stainless steel probe. This probe was introduced into the ion source of a VG Autospec Q mass spectrometer, and a beam of fast atoms of cesium, generated from cesium iodine (35 KeV), was fired at the target containing the sample. Negative ion spectra were obtained over the mass range of 50-1000 daltons.
Data are expressed as mean±SEM or as mean values of all animals when extracts were pooled before analysis. Results from different groups were compared using paired and unpaired two-tailed Student's t-test. P values of <0.05 were considered statistically significant.

[2] = Hepatic biotransformation of infused bile acid (negative ion FAB-MS, conjugate separation); format: in vivo, Sprague-Dawley rats; conditions: i.v. infusion
Procedure: Adult male Sprague-Dawley rats (body weight 200-230 g) were anesthetized by an intraperitoneal injection of pentobarbital (Nembutal, 7.5 mg/100 g body weight), and maintained under sedation by additional doses. The right jugular vein and the common bile duct were cannulated using PE-50 polyethylene tubing (Clay-Adams, Parsippany, N.J.). Body temperature was maintained throughout the experiment at 37° C. using a rectal probe and a thermostatically controlled heating pad (Harvard Apparatus Co., Inc., Millis, Mass.). Saline was infused at a rate of 1.0 ml/h using a Harvard pump (Harvard Apparatus Co., Inc.) into the jugular vein for a control period of 2h. After collecting two 10 minute bile samples for base-line analysis, the bile acids were individually infused intravenously (i.v.) for 30 minutes in stepwise increasing doses (0.5, 1.0, and 2.0 μmol/min/100 g body weight). Bile acid solutions were prepared in 3% human albumin in 0.45% saline. Six animals were used for each experiment and bile was collected every 10 minutes into preweighed tubes. At the end of the experiment, blood was obtained by cardiac puncture, and urine was obtained by aspiration of the bladder. All biological specimens were stored at -20° C. This animal study protocol (#1 B 10044) was approved by the Bioethics committee of the Children's Hospital Medical Center (Cincinnati, Ohio).
Negative ion fast atom bombardment-mass spectrometry (FAB-MS) spectra of bile samples, urine and synthetic compounds were obtained after placing the equivalent of approximately 1 μl of the original bile extract, 10 μl-50 μl of the urine extract and jig quantities of synthetic bile acids dissolved in methanol onto a small drop of a glycerol matrix spotted on a copper target of the FAB probe. This probe was introduced directly into the ion source of the mass spectrometer and a beam of fast atoms of either xenon generated with a saddle field atom gun (ion Tech, Teddington, Middlesex, UK) operated at 8 kV and 20 μA, or cesium generated from cesium iodine (35 kV), was fired at the target containing the sample. Negative ion spectra were obtained over the mass range of 50-1000 Da/e.
For the determination of hepatic biotransformation of the infused bile acid, bile collections from the six animal were pooled and biliary bile acids were determined by GC-MS after extraction, solvolysis, hydrolysis, and derivatization. Quantification of bile acids was achieved using GC, by comparing the peak height response of the individual bile acid with the peak height response obtained from the internal standard, nordeoxycholic acid added to the initial sample of bile. Identification of a bile acid was made on the basis of the retention index relative to a homologous series of n-alkanes, referred to as the methylene unit value (MU) and the fragmentation pattern of the mass spectrum was compared with authentic standards. A list of over 100 mass spectra of authentic bile acid standards and retention indices was recently compiled as a reference source (Lawson, A. M., et al, Mass spectrometry of bile acids, The Bile Acids, Vol. 4, Methods and Applications, pp. 167-267 (1988)).
In the case of the animals infused with UDCA-3S, bile was collected during the final period of bile acid infusion ([…]). Bile acids were solvolyzed and separated into groups based on their mode of conjugation using the lipophilic anion exchange gel, diethylaminohydroxypropyl Sephadex LH-20; Packard Instruments, Groningen, The Netherlands). Bile acid composition was determined in each fraction by GC-MS after hydrolysis and preparation of the Me-TMS ethers.

C[C@H](CCC(=O)O)[C@H]1CC[C@H]2[C@@H]3[C@@H](O)C[C@@H]4C[C@H](O)CC[C@]4(C)[C@H]3CC[C@]12C [UDCA, 3 alpha, 7 beta-dihydroxy-5 beta-cholan-24oic acid, reference compound]
Urinary excretion of sulfate conjugates of UDCA [1]: 4.6 nmol/day | Urinary unconjugated UDCA excretion [1]: 642.7 nmol/day | Hepatic biotransformation / form secreted in bile (in words) [2]: almost exclusively conjugated with taurine and glycine; also recorded: mainly conjugated with taurine, and to a lesser extent was converted to glycine, sulfate and flucuronide conjugates

C[C@H](CCC(=O)O)[C@H]1CC[C@H]2[C@@H]3[C@@H](O)C[C@@H]4C[C@H](OS(=O)(=O)O)CC[C@]4(C)[C@H]3CC[C@]12C [UDCA-3S, ursodeoxycholic acid 3-sulfate]
Urinary excretion of sulfate conjugates of UDCA [1]: 2.7 nmol/day | Urinary unconjugated UDCA excretion [1]: 5.2 nmol/day | Hepatic biotransformation / form secreted in bile (in words) ([2]; listed as C-3 sulfate of UDCA): secreted into bile to a limited extent unchanged, but also underwent appreciable amidation with taurine and glycine and further hydroxylation

C[C@H](CCC(=O)O)[C@H]1CC[C@H]2[C@@H]3[C@@H](OS(=O)(=O)O)C[C@@H]4C[C@H](O)CC[C@]4(C)[C@H]3CC[C@]12C [UDCA-7S, ursodeoxycholic acid 7-sulfate]
Urinary excretion of sulfate conjugates of UDCA [1]: 317.8 nmol/day | Urinary unconjugated UDCA excretion [1]: 1.8 nmol/day | Hepatic biotransformation / form secreted in bile (in words) [2]: No other significant ions were present to indicate further metabolic transformation; also recorded: not amidated with taurine or glycine | Hepatic biotransformation / form secreted in bile (in words) ([2]; listed as UDCA-7-sulfate): secreted into bile unchanged

C[C@H](CCC(=O)O)[C@H]1CC[C@H]2[C@@H]3[C@@H](OS(=O)(=O)O)C[C@@H]4C[C@H](OS(=O)(=O)O)CC[C@]4(C)[C@H]3CC[C@]12C [UDCA-DS, ursodeoxycholic acid 3,7-disulfate]
Urinary excretion of sulfate conjugates of UDCA [1]: 217.1 nmol/day | Urinary unconjugated UDCA excretion [1]: 1.3 nmol/day | Hepatic biotransformation / form secreted in bile (in words) [2]: No other ions were present to suggest further metabolic transformation; also recorded: not amidated with taurine or glycine | Hepatic biotransformation / form secreted in bile (in words) ([2]; listed as UDCA-disulfate): secreted into bile unchanged
